Measurements published in patent US10287267B2, “Isoquinolin-3-yl carboxamides and preparation and use thereof” (Samumed, LLC, priority 2016, dated 2019).
Read-outs that look alike come from different tables or passages of the source.

Tests used:
[1] = test system: Wnt pathway (Sp5-Luc reporter, TCF/LEF binding sites) in SW480 colon carcinoma cells; assay: Screening assay for Wnt activity: Sp5-Luc reporter gene assay; format: cell-based, human; settings: Homo sapiens; for EC50: Sp5-Luc reporter, SW480 cells, 36 to 48 hours; for inhibition at 10 µM: SW480, read-out: percent inhibition at 10 μM;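 as to all read-outs here: firefly luciferase luminescence read in stably transduced SW480 cells carrying the Sp5 promoter reporter with eight TCF/LEF sites, compounds given in 0.1% DMSO final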
Description: The screening assay for Wnt activity is described as follows.
Following incubation, 15 μl of BriteLite Plus luminescence reagent (Perkin Elmer) was added to each well of the 384-well assay plates. The plates were placed on an orbital shaker for 2 min and then luminescence was quantified using the Envision (Perkin Elmer) plate reader.

[2] = target: recombinant DYRK1A kinase (Homo sapiens (Human), UniProt Q13627); assay: DYRK1A kinase assay (Ser/Thr 18 peptide Z-lyte FRET); format: biochemical; settings: 30 μM ATP, 1 h room temperature;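 also: Read-out is the coumarin to fluorescein emission ratio, referenced to unphosphorylated (0%) and phosphorylated (100%) Ser/Thr 18 peptide controls, values from dose-response curves by non-linear regression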
recombinant GSK3β kinase = recombinant GSK3β kinase (Homo sapiens (Human), UniProt P49841); assay: GSK3β kinase assay (Ser/Thr 09 peptide Z-lyte FRET); format: biochemical; settings: 46 μM ATP, 1 h room temperature;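 also: kinase activity read as coumarin to fluorescein emission ratio, 11-point threefold dilutions from 10 µM to 0.0003 µM in duplicate, unphosphorylated and phosphorylated peptide as 0% and 100% controls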
Chain of recombinant GSK3β kinase (P49841 whole entry): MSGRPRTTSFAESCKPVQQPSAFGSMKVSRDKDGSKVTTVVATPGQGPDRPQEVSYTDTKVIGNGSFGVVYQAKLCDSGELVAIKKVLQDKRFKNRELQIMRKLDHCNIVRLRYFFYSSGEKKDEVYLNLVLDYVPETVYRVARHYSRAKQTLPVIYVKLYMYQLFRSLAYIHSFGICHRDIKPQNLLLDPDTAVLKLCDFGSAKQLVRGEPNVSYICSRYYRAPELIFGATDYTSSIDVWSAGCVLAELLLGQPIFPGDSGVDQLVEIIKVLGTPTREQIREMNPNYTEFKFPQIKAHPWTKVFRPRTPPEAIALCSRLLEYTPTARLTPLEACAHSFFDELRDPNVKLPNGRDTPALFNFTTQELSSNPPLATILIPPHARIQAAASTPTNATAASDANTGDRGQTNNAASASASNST

[3] = test system: Tau phosphorylation at Ser396 (pSer396); assay: Tau phosphorylation assay (pSer396 ELISA / western blot) in SH-SY5Y cells; format: cell-based, human; settings: Homo sapiens, read-out: pSer396 Tau EC50;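 also: EC50 for reduction of Tau pSer396 in lysed cells, measured by colorimetric ELISA or chemiluminescent western blot, both using the same pSer396 antibody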
[4] = test system: SW480 colon carcinoma cells; assay: Cell viability assay (CellTiter-Glo); format: cell-based, human; settings: Homo sapiens; for EC50: 96 h, SW480 cells, CellTiter-Glo, four days incubation; for inhibition at 10 µM: SW480, read-out: percent inhibition at 10 μM
IL-6 = IL-6 inhibition in LPS-stimulated human peripheral blood mononuclear cells (HTRF); format: cell-based; settings: Homo sapiens, PBMC; for inhibition at 10 µM: read-out: percent value in parentheses beside EC50 >10 μM; for EC50: Table 9, huPBMCs, LPS 50 ng/mL, 22 hours, dose-response starting from 10 μM;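 as to all read-outs here: IL-6 detected by HTRF with an XL665- and Cryptate-labelled anti-IL-6 antibody pair, samples run in duplicate, EC50 obtained from a four-parameter Levenberg-Marquardt curve fit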
Description: After 22 hour incubation, a mixture of anti-IL6 XL665 and anti-IL-6 Cryptate diluted in reconstitution buffer (Catalog #62IL6PEC, Cisbio Inc., Bedford, Mass.) was added to each well. […] All samples were processed in duplicate. […] EC50 was determined using software generated by Dotmatics Limited (Windhill Bishops Stortford Herts, UK) using the Levenberg-Marquardt 4 parameter fitting procedure with finite different gradients.

[5] = SH-SY5Y cells, overnight (16-18 h) exposure

Compound | EC50 [1] [nM] | EC50 [2] [nM] | EC50 (recombinant GSK3β kinase) [nM] | EC50 ([3]; SH-SY5Y) [nM] | EC50 [4] [nM] | inhibition at 10 µM [4] [%] | inhibition at 10 µM (IL-6) [%] | EC50 (IL-6) [nM] | inhibition at 10 µM [1] [%] | EC50 [3, 5] [nM]
Cc1nnc(-c2ccc3cnc(NC(=O)CN4C5CCC4CC5)cc3c2)s1 [Compound 959, 2-(7-Azabicyclo[2.2.1]heptan-7-yl)-N-(6-(5-methyl-1,3,4-thiadiazol-2-yl)isoquinolin-3-yl)acetamide] | 4240 | 15.4 | 45 | 443 | > 10000 | 45 | 6.1 | > 10000 |  | 
Cc1nnc(-c2ccc3cnc(NC(=O)CN4C5CCC4COC5)cc3c2)s1 [Compound 962, 2-(3-Oxa-8-azabicyclo[3.2.1]octan-8-yl)-N-(6-(5-methyl-1,3,4-thiadiazol-2-yl)isoquinolin-3-yl)acetamide] | > 10000 | 23.6 | 57 | 447 | > 10000 | 30.9 | 9.6 | > 10000 | 45 | 
CN1CCC(C(=O)Nc2cc3cc(-c4cnn(C)c4)c(Cl)cc3cn2)CC1 [Compound 1027, N-(7-Chloro-6-(1-methyl-1H-pyrazol-4-yl)isoquinolin-3-yl)-1-methylpiperidine-4-carboxamide] | 875 | 50 | 3070 |  | 488 |  | 0 | > 10000 |  | 2200
Cc1ncc(-c2ccc3cnc(NC(=O)CN4CCCCC4)cc3c2)o1 [Compound 1028, N-(6-(2-Methyloxazol-5-yl)isoquinolin-3-yl)-2-(piperidin-1-yl)acetamide] | 3870 | 22.5 | 104 |  | 3520 |  |  | 1930 |  | 536
Cn1cc(-c2ccc3cnc(NC(=O)CCN4CCOCC4)cc3c2)cn1 [Compound 1034, N-(6-(1-Methyl-1H-pyrazol-4-yl)isoquinolin-3-yl)-3-morpholinopropanamide] | 2040 | 1.9 | 27 |  | 3240 |  |  | 3320 |  | 430
Cn1cc(-c2ccc3cnc(NC(=O)[C@H]4C[C@H](N5CCOCC5)C4)cc3c2)cn1 [Compound 1035, trans-N-(6-(1-Methyl-1H-pyrazol-4-yl)isoquinolin-3-yl)-3-morpholinocyclobutane-1-carboxamide] | 1370 | 2.6 | 10 |  | 2460 |  |  | 1030 |  | 129
CN1CCC(N(C)C(=O)Nc2cc3cc(-c4cnn(C)c4)ccc3cn2)CC1 [Compound 1037, 1-methyl-3-(6-(1-methyl-1H-pyrazol-4-yl)isoquinolin-3-yl)-1-(1-methylpiperidin-4-yl)urea] | 3640 | 10.2 | 1920 |  | > 10000 | 32.7 |  | 7520 |  | > 10000
CNc1ncc(-c2ccc3cnc(NC(=O)C4CCNCC4)cc3c2)s1 [Compound 1040, N-(6-(2-(Methylamino)thiazol-5-yl)isoquinolin-3-yl)piperidine-4-carboxamide] | 1210 | 4.8 | 98 |  | 2680 |  |  | 1180 |  | 1600
CNc1ncc(-c2ccc3cnc(NC(=O)C4CCN(C)CC4)cc3c2)s1 [Compound 1041, 1-Methyl-N-(6-(2-(methylamino)thiazol-5-yl)isoquinolin-3-yl)piperidine-4-carboxamide] | 776 | 3.3 | 58 |  | 2760 |  |  | 941 |  | 1300
CCN(CC)c1ncc(-c2ccc3cnc(NC(=O)CN4CCC(F)CC4)cc3c2)s1 [Compound 1047, N-(6-(2-(Diethylamino)thiazol-5-yl)isoquinolin-3-yl)-2-(4-fluoropiperidin-1-yl)acetamide] | > 10000 | 463 | 4740 |  | > 10000 | 41.7 | 4.5 | > 10000 | 32.6 | > 10000
CCN(CC)c1ncc(-c2ccc3cnc(NC(=O)CN4CCN(C)CC4)cc3c2)s1 [Compound 1048, N-(6-(2-(Diethylamino)thiazol-5-yl)isoquinolin-3-yl)-2-(4-methylpiperazin-1-yl)acetamide] | 9380 | 541 | 5810 |  | 4060 |  | 4.3 | > 10000 |  | 4700
Cc1nnc(-c2ccc3cnc(NC(=O)CN4CCCOCC4)cc3c2)s1 [Compound 1049, N-(6-(5-Methyl-1,3,4-thiadiazol-2-yl)isoquinolin-3-yl)-2-(1,4-oxazepan-4-yl) acetamide] | 2540 | 6.9 | 12 |  | > 10000 | 31.3 | 10.4 | > 10000 |  | 319
CC(F)(F)CN1CCC(C(=O)Nc2cc3cc(-c4cnco4)ccc3cn2)CC1 [Compound 1057, 1-(2,2-Difluoropropyl)-N-(6-(oxazol-5-yl)isoquinolin-3-yl)piperidine-4-carboxamide] | > 10000 | 2.7 | 97 |  | 4500 |  |  | 3200 | 5 | 342
Cc1ncc(-c2ccc3cnc(NC(=O)[C@H]4C[C@H](N5CCOCC5)C4)cc3c2)o1 [Compound 1061, trans-N-(6-(2-Methyloxazol-5-yl)isoquinolin-3-yl)-3-morpholinocyclobutane-1-carboxamide] | 1610 | 4.3 | 8 |  | 1600 |  |  | 947 |  | 58
Cc1ncc(-c2ccc3cnc(NC(=O)CN4CCOCC4)cc3c2)o1 [Compound 1067, N-(6-(2-Methyloxazol-5-yl)isoquinolin-3-yl)-2-morpholinoacetamide] | > 10000 | 18.8 | 67 |  | > 10000 | 43.1 |  | 8940 | 48.7 | 729
Cc1ncc(-c2ccc3cnc(NC(=O)CCN4CCOCC4)cc3c2)o1 [Compound 1068, N-(6-(2-Methyloxazol-5-yl)isoquinolin-3-yl)-3-morpholinopropanamide] | 3720 | 5.3 | 36 |  | > 10000 | 46 |  | 3400 |  | 689
CN(C)c1nnc(-c2ccc3cnc(NC(=O)C4CCNCC4)cc3c2)o1 [Compound 1075, N-(6-(5-(Dimethylamino)-1,3,4-oxadiazol-2-yl)isoquinolin-3-yl)piperidine-4-carboxamide] | 2540 | 13.7 | 15 |  | 5280 |  |  | 3270 |  | 709
COC1CCN(CC(=O)Nc2cc3cc(-c4cnn(C)c4)ccc3cn2)CC1 [Compound 1077, 2-(4-Methoxypiperidin-1-yl)-N-(6-(1-methyl-1H-pyrazol-4-yl)isoquinolin-3-yl)acetamide] | 5190 | 4.5 | 32 |  | 5250 |  |  | 3170 |  | 425
